Assay results published in US8362008B2 (The University Of Edinburgh, priority 2007, dated 2013).

target: T1, human 11β-HSD1 enzyme (Homo sapiens, UniProt P28845); experiment: Cellular in vitro 11β-HSD1 enzyme inhibition assay (SPA, HEK293/11β-HSD1 cells); assay type: cell-based; conditions: HEK293, less than or equal to 1000 nM (1 μM)
T1 construct: stably transfected with a construct containing the full-length gene coding for the human 11β-HSD1 enzyme; expressed in transfected cells; host or cells: HEK293 (HEK293/11β-HSD1 cells)
Procedure: Cellular In Vitro 11β-HSD1 Enzyme Inhibition Assay
Compounds were assessed by a Scintillation Proximity Assay (SPA) performed according to the following protocol:
HEK293 cells were stably transfected with a construct containing the full-length gene coding for the human 11β-HSD1 enzyme to create HEK293/11β-HSD1 cells. Cells were routinely cultured in DMEM containing 10% calf foetal serum, 1% glutamine, and 1% penicillin and streptomycin. Prior to assay, cells were plated at 2×10^4 cells/well in 96-well poly-D-Lys coated flat-bottomed microplates and incubated in 5% CO2, 95% O2 at 37° C. for 24 hours. The media in each well was removed immediately before assay.
Compounds to be tested were dissolved in DMSO at 10 mM and serially diluted into water containing 10% DMSO. Diluted compounds at a volume of 10 μL were added to wells of a 96-well V-bottomed microplate. […] This solution (100 μL/well) was transferred to the plate containing the cells. The plate was then incubated in 5% CO2, 95% O2 at 37° C. for 2 hours.
Following this incubation, 50 μL of the assay solution was transferred to each well of a 96-well scintillation microplate. A mixture consisting of anti-mouse YSi SPA beads, pre-mixed with anti-cortisol antibody in assay buffer (50 mM Tris.HCl, pH 7.0; 300 mM NaCl; 1 mM EDTA, 5% glycerol) was prepared and 50 μL added to each well of the scintillation microplate. An adhesive strip was applied to the microplate and the plate gently shaken for at least 2 hours at room temperature, and then spun briefly on a low speed centrifuge. The plate was read on a scintillation counter suitable for 96-well microplates. For the calculation of percentage inhibition, a series of wells were added to the plate that represented the assay maximum and the assay minimum: one set that contained substrate without cells (mimimum) and another set that contained substrate and cells without any compound (maximum).
The calculation of median inhibitory concentration (IC50) values for the compounds was performed using GraphPad Prism® software. Dose-response curves for each compound were plotted as fractional inhibition and data fitted to the four parameter logistic equation.

T1 sequence (P28845 whole entry): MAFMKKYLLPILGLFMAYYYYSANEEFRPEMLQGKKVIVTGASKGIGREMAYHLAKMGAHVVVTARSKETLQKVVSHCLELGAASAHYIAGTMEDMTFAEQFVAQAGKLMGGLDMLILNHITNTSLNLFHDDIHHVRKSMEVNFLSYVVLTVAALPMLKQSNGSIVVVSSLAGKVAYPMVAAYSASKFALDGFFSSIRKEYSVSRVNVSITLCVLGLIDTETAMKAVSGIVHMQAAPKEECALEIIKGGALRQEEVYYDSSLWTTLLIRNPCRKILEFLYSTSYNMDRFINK

IC50 [nM]	Compound
≤ 1000	O=C(c1csc(C2CCOCC2)c1)N1CCC[C@@H]2CCCC[C@@H]21 (single isomer, unassigned) [CC-140, cis-(octahydro-quinolin-1-yl)-[5-(tetrahydro-pyran-4-yl)-thiophen-3-yl]-methanone]
≤ 1000	O=C(c1csc(C2CCNCC2)c1)N1CCC[C@@H]2CCCC[C@@H]21 (single isomer, unassigned) [CC-159, cis-(octahydro-quinolin-1-yl)-(5-piperidin-4-yl-thiophen-3-yl)-methanone]
≤ 1000	O=C(c1csc(C2CCOCC2)c1)N1CCCCCC1 [CC-004]
≤ 1000	CC1(C)CCCN(C(=O)c2cc(C3CCOCC3)sc2Cl)C1 [CC-005]
≤ 1000	O=C(c1cc(C2CCOCC2)sc1Cl)N1CCCCCC1 [CC-006, Azepan-1-yl-[2-chloro-5-(tetrahydro-pyran-4-yl)-thiophen-3-yl]methanone]
≤ 1000	O=C(OCc1ccccc1)N1CCC(c2cc(C(=O)N3CCCCCC3)cs2)CC1 [CC-007, 4-[4-(Azepane-1-carbonyl)-thiophen-2-yl]-piperidine-1-carboxylic acid benzyl ester]
≤ 1000	O=C(c1csc(C2CCNCC2)c1)N1CCCCC1c1ccccc1 (stereo not shown) [CC-017, (2-Phenyl-piperidin-1-yl)-(5-piperidin-4-yl-thiophen-3-yl)methanone]
≤ 1000	CC1(C)CCCN(C(=O)c2csc(C3CCOCC3)c2)CC1 [CC-021]
≤ 1000	CC1(C)CCCCN(C(=O)c2csc(C3CCOCC3)c2)C1 [CC-022]
≤ 1000	CC(=O)N1CCC(c2cc(C(=O)N3CCCCC(C)(C)C3)cs2)CC1 [CC-026]
≤ 1000	O=C(c1csc(C2CCOCC2)c1)N1CCCC2CCCCC21 (stereo not shown) [CC-028]
≤ 1000	O=C(c1cc(C2CCOCC2)sc1Cl)N1CCCC2CCCCC21 (stereo not shown) [CC-030]
≤ 1000	O=C(c1cc(C2CCOCC2)sc1Cl)N1CCC2CCCCC2C1 (stereo not shown) [CC-031]
≤ 1000	O=C(c1csc(C2CCNCC2)c1)N1CCCC2CCCCC21 (stereo not shown) [CC-040]
≤ 1000	O=C1CCCN1c1cc(C(=O)N2CCCC3CCCCC32)cs1 (stereo not shown) [CC-049]
≤ 1000	O=C1COCCN1c1cc(C(=O)N2CCCC3CCCCC32)cs1 (stereo not shown) [CC-050]
≤ 1000	O=C(c1ccno1)N1CCC(c2cc(C(=O)N3CCCC4CCCCC43)cs2)CC1 (stereo not shown) [CC-051]
≤ 1000	O=C(CO)N1CCC(c2cc(C(=O)N3CCCC4CCCCC43)cs2)CC1 (stereo not shown) [CC-054]
≤ 1000	O=C(CN1CCOCC1)N1CCC(c2cc(C(=O)N3CCCC4CCCCC43)cs2)CC1 (stereo not shown) [CC-059]
≤ 1000	CC1(C)CC2CC(C)(CN2C(=O)c2csc(C3CCOCC3)c2)C1 (stereo not shown) [CC-069]

More lines, now with the values behind:

Compound	IC50 [nM]
CCc1cc(C(=O)N2CCCCC2)c(Br)s1 [AA-002, (2-Bromo-5-ethyl-thiophen-3-yl)-piperidin-1-yl-methanone]	≤ 1000
CCc1cc(C(=O)N2CCCCCC2)c(Cl)s1 [AA-004]	≤ 1000
CCc1cc(C(=O)N2CCCCCC2)c(Br)s1 [AA-005]	≤ 1000
CCc1cc(C(=O)N2CCCC3CCCCC32)cs1 (stereo not shown) [AA-009]	≤ 1000
CCCCCc1cc(C(=O)N2CCCC3CCCCC32)cs1 (stereo not shown) [AA-011]	≤ 1000
CCc1cc(C(=O)N2CCCC3CCCCC32)c(Cl)s1 (stereo not shown) [AA-013]	≤ 1000
CCc1cc(C(=O)N2CC3CC4CC(C3)CC2C4)cs1 [AA-015]	≤ 1000
CCc1cc(C(=O)N2C3CCCC2CC3)cs1 [AA-016]	≤ 1000
CCCCCc1cc(C(=O)N2CC3(C)CC2CC(C)(C)C3)cs1 (stereo not shown) [AA-017]	≤ 1000
CC1(C)CC2CC(C)(CN2C(=O)c2csc(CC(F)(F)F)c2)C1 (stereo not shown) [AA-018]	≤ 1000
CCc1cc(C(=O)N2CCCC(C)(C)CC2)cs1 [AA-019]	≤ 1000
CCc1cc(C(=O)N2CCCCC2c2ccccc2)cs1 (stereo not shown) [AA-021]	≤ 1000
Cc1ccccc1OCc1cc(C(=O)N2CCCCC2)cs1 [BB-002, Piperidin-1-yl-(5-o-tolyloxymethyl-thiophen-3-yl)-methanone]	≤ 1000
COCc1cc(C(=O)N2CC3(C)CC2CC(C)(C)C3)cs1 (stereo not shown) [BB-006]	≤ 1000
O=C(c1csc(C2=CCNCC2)c1)N1CCCC2CCCCC21 (stereo not shown) [CC-047]	≤ 1000

same assay, conditions: HEK293, more than 1000 nM (1.0 μM) and less than or equal to 30 μM

IC50 [nM]	Compound
1000 to 30000	O=C(c1csc(C2CCOCC2)c1)N1CCCCC1 [CC-001, Piperidin-1-yl-[5-(tetrahydro-pyran-4-yl)-thiophen-3-yl]-methanone]
1000 to 30000	CC1CCCCN1C(=O)c1csc(C2CCOCC2)c1 (stereo not shown) [CC-002]
1000 to 30000	O=C(c1csc(C2CCNCC2)c1)N1CCCCCC1 [CC-008, Azepan-1-yl-(5-piperidin-4-yl-thiophen-3-yl)-methanone]
1000 to 30000	O=C(OCc1ccccc1)N1CCC(c2cc(C(=O)N3CCCCCC3)c(Cl)s2)CC1 [CC-009, 4-[4-(Azepane-1-carbonyl)-5-chloro-thiophen-2-yl]-piperidine-1-carboxylic acid benzyl ester]
1000 to 30000	CC1(C)CCCN(C(=O)c2csc(N3CCOCC3)c2)C1 [CC-010, (3,3-Dimethyl-piperidin-1-yl)-(5-morpholin-4-yl-thiophen-3-yl)-methanone]
1000 to 30000	CC1(C)CCN(C(=O)c2csc(C3CCOCC3)c2)CC1 [CC-011]
1000 to 30000	O=C(c1csc(C2CCNCC2)c1)N1CCCCC1c1ccccn1 (stereo not shown) [CC-012]
1000 to 30000	CC1(C)CCCN(C(=O)c2csc(C3CCNCC3)c2)C1 [CC-013]
1000 to 30000	CC1(C)CCCN(C(=O)c2csc(C3CCCNC3)c2)C1 (stereo not shown) [CC-014]
1000 to 30000	O=C(c1csc(C2CCCNC2)c1)N1CCCCCC1 (stereo not shown) [CC-015, Azepan-1-yl-(5-piperidin-3-yl-thiophen-3-yl)-methanone]
1000 to 30000	CC(=O)N1CC=C(c2cc(C(=O)N3CCCCCC3)cs2)CC1 [CC-016, 1-{4-[4-(Azepane-1-carbonyl)-thiophen-2-yl]-3,6-dihydro-2H-pyridin-1-yl}-ethanone]
1000 to 30000	O=C(c1csc(C2CCNCC2)c1)N1CCCC(c2ccccc2)C1 (stereo not shown) [CC-018]
1000 to 30000	C[C@@H]1CN(C(=O)c2csc(C3CCNCC3)c2)C[C@H](C)O1 [CC-019]
1000 to 30000	O=C(c1csc(C2CCNCC2)c1)N1CCCC1c1ccccc1 (stereo not shown) [CC-020]
1000 to 30000	CC1(C)CCCN(C(=O)c2csc(C3CCNCC3)c2)CC1 [CC-023, (4,4-dimethyl-azepan-1-yl)-(5-piperidin-4-yl-thiophen-3-yl)-methanone]
1000 to 30000	CC1(C)CCCCN(C(=O)c2csc(C3CCNCC3)c2)C1 [CC-024]
1000 to 30000	O=C(c1csc(C2CCOCC2)c1)N1CCC2CCCCC2C1 (stereo not shown) [CC-029]
1000 to 30000	O=C(OCc1ccccc1)N1CCC(c2cc(C(=O)N3CCCC4CCCCC43)cs2)CC1 (stereo not shown) [CC-032]
1000 to 30000	CC(=O)N1CCC(c2cc(C(=O)N3CCCC4CCCCC43)cs2)CC1 (stereo not shown) [CC-036]
1000 to 30000	CC(=O)N1CCC(c2cc(C(=O)N3CCN4CCCCC4C3)cs2)CC1 (stereo not shown) [CC-037]
1000 to 30000	O=C(c1csc(C2CCNCC2)c1)N1CCN2CCC[C@H]2C1 [CC-041]
1000 to 30000	O=C(c1csc(C2CCNCC2)c1)N1CCN2CCCCC2C1 (stereo not shown) [CC-042]
1000 to 30000	O=C(c1csc(C2CCCNC2)c1)N1CCCC2CCCCC21 (stereo not shown) [CC-043]
1000 to 30000	O=C(c1ccno1)N1CCC(c2cc(C(=O)N3CCCC4CCCCC43)cs2)CC1 (stereo not shown) [CC-052]
1000 to 30000	CNCC(=O)N1CCC(c2cc(C(=O)N3CCCC4CCCCC43)cs2)CC1 (stereo not shown) [CC-056]
1000 to 30000	O=C(CN1CCOCC1)N1CCC(c2cc(C(=O)N3CCCC4CCCCC43)cs2)CC1 (stereo not shown) [CC-060]
1000 to 30000	O=C(CCN1CCCCC1)N1CCC(c2cc(C(=O)N3CCCC4CCCCC43)cs2)CC1 (stereo not shown) [CC-062]
1000 to 30000	CN(C)CC(=O)N1CCC(c2cc(C(=O)N3CCCC4CCCCC43)cs2)CC1 (stereo not shown) [CC-063]
1000 to 30000	CC(C)OC(=O)N1CCC(c2cc(C(=O)N3CCCC4CCCCC43)cs2)CC1 (stereo not shown) [CC-067]

The remaining lines, values behind:

Compound	IC50 [nM]
CCc1cc(C(=O)N2CCCCC2)c(C#N)s1 [AA-003, 5-Ethyl-3-(piperidine-1-carbonyl)-thiophene-2-carbonitrile]	1000 to 30000
CCc1cc(C(=O)N2CCCCCC2)c(C#N)s1 [AA-006]	1000 to 30000
CCc1cc(C(=O)N2CCC(c3ccccc3)C2)c(Cl)s1 (stereo not shown) [AA-008]	1000 to 30000
CCc1cc(C(=O)N2CCC3CCCCC3C2)cs1 (stereo not shown) [AA-010]	1000 to 30000
CCc1cc(C(=O)N2CCCC(F)(F)CC2)cs1 [AA-020]	1000 to 30000
O=C(c1csc(COc2ccccc2)c1)N1CCCCC1 [BB-001]	1000 to 30000
O=C(c1csc(COc2ccc(-n3ccnc3)cc2)c1)N1CCCCC1 [BB-003]	1000 to 30000
O=C(c1csc(COc2ccc(-n3cncn3)cc2)c1)N1CCCCC1 [BB-004]	1000 to 30000
COCc1cc(C(=O)N2CCCCCC2)cs1 [BB-005]	1000 to 30000
